Reference: ChEMBL document CHEMBL4725288, “Modulation of TRPV4 and BKCa for treatment of brain diseases” (Bioorg Med Chem, 2020)

Legend:
[1] = Inhibition of TNP-ADP binding to SERCA (unknown origin) by UV dual-wavelength spectrophotometer; design: species or system Homo sapiens
[2] = target: Transient receptor potential cation channel subfamily V member 4 (Homo sapiens, UniProt Q9HBA0); assay: Antagonist activity at human TRPV4
Sequence of Transient receptor potential cation channel subfamily V member 4 (Q9HBA0 whole entry): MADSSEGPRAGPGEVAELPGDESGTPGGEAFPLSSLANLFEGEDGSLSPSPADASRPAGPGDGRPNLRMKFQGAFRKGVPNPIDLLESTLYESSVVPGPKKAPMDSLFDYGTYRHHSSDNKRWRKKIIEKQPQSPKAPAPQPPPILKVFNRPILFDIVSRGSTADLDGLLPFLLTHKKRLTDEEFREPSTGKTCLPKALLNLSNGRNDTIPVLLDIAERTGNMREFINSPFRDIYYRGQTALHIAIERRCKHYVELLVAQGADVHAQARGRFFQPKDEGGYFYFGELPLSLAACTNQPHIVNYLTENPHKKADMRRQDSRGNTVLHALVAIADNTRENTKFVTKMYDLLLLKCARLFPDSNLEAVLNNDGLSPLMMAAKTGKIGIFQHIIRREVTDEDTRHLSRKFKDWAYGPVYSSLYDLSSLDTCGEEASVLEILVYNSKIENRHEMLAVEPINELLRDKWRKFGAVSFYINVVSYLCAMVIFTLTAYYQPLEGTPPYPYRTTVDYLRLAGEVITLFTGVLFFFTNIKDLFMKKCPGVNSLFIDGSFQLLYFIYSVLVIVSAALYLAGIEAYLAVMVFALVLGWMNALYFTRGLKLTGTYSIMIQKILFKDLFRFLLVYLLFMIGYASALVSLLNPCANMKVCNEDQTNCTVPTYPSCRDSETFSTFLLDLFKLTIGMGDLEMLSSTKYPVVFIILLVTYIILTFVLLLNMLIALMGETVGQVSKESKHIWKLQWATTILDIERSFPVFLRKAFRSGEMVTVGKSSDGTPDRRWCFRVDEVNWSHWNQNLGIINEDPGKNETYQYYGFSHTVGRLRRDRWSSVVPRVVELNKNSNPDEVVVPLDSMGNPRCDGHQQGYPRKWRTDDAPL

Row | Structure (SMILES) | IC50 [1] | IC50 [2]
1 | CC(C)(O)[C@H]1O[C@H]2CC[C@@]3(C)[C@@](O)(CC[C@H]4Cc5c([nH]c6ccccc56)[C@@]43C)C2=CC1=O [PAXILLINE] | 5000 nM | 
2 | Cc1c(C(=O)Nc2cccc(C(F)(F)F)c2)cc(-c2ccccc2)n1CCCN1CCOCC1 |  | 18 nM
